≈ marks a conversion by molar mass, not a printed value. Where two headings read alike, the source gives them in different places.
Assays:
[1] = test system: human breast adenocarcinoma MCF7 cells; experiment: Growth inhibition test (MTS); type: cell-based; settings: MCF-7; 72 hours
Method: (§1) Two thousand cells of human breast adenocarcinoma MCF7 were inoculated into each well of a 96-well microplate (manufactured by Corning Corp.), and using DMEM medium (culture medium) containing 10% fetal calf serum (FCS). The same day, a dimethyl sulfoxide (DMSO) solution of each test compound prepared in a concentration of 10 mmol/L was further diluted with DMSO to the desired concentrations (0.1, 0.5, 1, 2.5, 5 and 10 micromol/L), and the diluted solution was added to each well. The individual wells were further cultured in 5% carbon dioxide at 37° C. for 72 hours. After completion of the culture, 10 μl MTS (3-(4,5-Dimethyl-2-thiazolyl)-5-(carboxymethoxyphenyl)-2-(4-sulfophenyl)-2H-tetrazolium, inner salt assay (CellTiter96® AQueous One Solution Cell Proliferation Assay, Promega) was added to each well, and culturing was performed in 5% carbon dioxide at 37° C. for 2 hours. Using a microplate spectrophotometer (Synergy 2 multi-mode microplate reader (BioTek)), the absorbance of each well was measured at 490 nm. The value for cells not incorporated with a test compound was designated as 100%. By comparing these values with the absorbance difference obtained at the well in which each test compound was added, the cell viability (% viability) after treatment with the test compound was calculated.

neoplastic cell lines = experiment: MTS cytotoxicity, panel of cancer cell lines; type: cell-based, human; settings: majority of the tested cancer cell lines; read-out: general cytotoxic activity (compound concentration that results in death of 50% of the cell)
Method: as §1, with “Ten” for “Two”, “chronic myelocytic leukemia K562” for “breast adenocarcinoma MCF7”, “Corp.)” for “Corp.), and”, “Iscove's MDM” for “DMEM”
as §1, with “prostate” for “breast”, “PC3” for “MCF7”, “F12K (Ham's F12:[…] 1:1)” for “DMEM”, “The same day, a dimethyl sulfoxide (DMSO) solution of each test compound prepared in a concentration of 10 mmol/L was further diluted with DMSO to the desired concentrations (0.1, 0.5, 1, 2.5, 5 and 10 micromol/L), and the diluted solution was added to each well. The individual wells were further cultured in 5% carbon dioxide at 37° C. for 72 hours.” left out
as §1, with “prostate carcinoma DU145” for “breast adenocarcinoma MCF7”, “The same day, a dimethyl sulfoxide (DMSO) solution of each test compound prepared in a concentration of 10 mmol/L was further diluted with DMSO to the desired concentrations (0.1, 0.5, 1, 2.5, 5 and 10 micromol/L), and the diluted solution was added to each well. The individual wells were further cultured in 5% carbon dioxide at 37° C. for 72 hours.” left out, “innersalt” for “inner salt”, “calculated. […]” for “calculated.”

CLK1 = CLK1 (Homo sapiens, UniProt P49759); experiment: Radiometric kinase assay (HotSpot)
Chain of CLK1 (P49759 whole entry): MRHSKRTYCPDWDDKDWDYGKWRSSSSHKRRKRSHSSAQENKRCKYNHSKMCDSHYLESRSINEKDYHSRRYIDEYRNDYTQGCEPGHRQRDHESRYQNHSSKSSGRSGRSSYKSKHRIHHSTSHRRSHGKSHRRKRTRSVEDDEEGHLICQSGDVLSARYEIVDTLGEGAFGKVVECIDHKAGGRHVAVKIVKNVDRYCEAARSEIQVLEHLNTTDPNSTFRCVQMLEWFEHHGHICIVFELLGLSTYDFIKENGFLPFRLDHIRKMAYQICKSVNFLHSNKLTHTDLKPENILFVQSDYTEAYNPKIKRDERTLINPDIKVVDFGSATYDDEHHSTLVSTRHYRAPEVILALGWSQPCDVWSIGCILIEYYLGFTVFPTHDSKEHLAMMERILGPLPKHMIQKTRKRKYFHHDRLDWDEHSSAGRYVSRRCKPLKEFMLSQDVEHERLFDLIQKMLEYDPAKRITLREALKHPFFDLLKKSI
Method: Kinase assays were performed at Reaction Biology Corporation (www.reactionbiology.com, Malvern Pa.) using the “HotSpot” assay platform. This assay platform is based on a radiometric filtration binding assay and is considered as the “gold standard” to which non-radiometric methods are compared. In this assay format, the kinase reaction is performed in the presence of 32 P-γ-ATP or 33 P-γ-ATP, followed by binding of the final radioisotope labeled peptide product to filters after which unreacted phosphate is washed away and the levels of phosphorylated peptide are measured.

Solubility in pH 7.4 = settings: phosphate buffer
Method: Compound stock solutions were prepared in DMSO to final concentrations of 1000 mM. For each compound studied, 12 solutions were prepared to cover concentrations from 0.001 to 1 mM. As a solvent 0.2 mM phosphate buffer (pH 7.4) was used. The final concentration of DMSO in the solutions was 1% (v/v). The solutions were left mixing for 24 hours at 37° C., 350 rpm and following incubation centrifuged for 5 minutes at 14500 rpm. The samples were then analyzed by RP HPLC using a C18 column and 0.2% solution of formic acid in water/acetonitrile mobile phase. […] The solubility was determined as the point as the point at which the concentration curve reaches plateau.

SMILES | Cytotoxicity in MTS assay (ED50) [1] | EC50 (neoplastic cell lines) | solubility at 24 h (Solubility in pH 7.4) | further results
CN(C)c1nc2c(Br)c(Br)c(Br)c(Br)c2[nH]1 [DMAT, reference compound] | >10 µM | > 10 µM |  | Solubility [mM] in phosphate buffer pH 7.4: <0.01 mM; IC50 (CLK1; read-out: Inhibitory activity (IC50 in nM) in radiometric cell free assay, CLK1, ATP 1 μM, Myelin Basic Protein 10 μM): 211 nM
CN1CCN(c2nc3c(Br)c(Br)c(Br)c(Br)c3[nH]2)CC1 [Compound 21, 4,5,6,7-tetrabromo-2-(4-methylpiperazin-1-yl)-1H-benzo[d]imidazole] | >10 µM |  | < 10 µM | 
Brc1c(Br)c(Br)c2[nH]c(NCCN3CCOCC3)nc2c1Br [Compound 16, 4,5,6,7-tetrabromo-N-(2-morpholinoethyl)-1H-benzo[d]imidazol-2-amine] | >10 µM |  | 23 µM (≈ 12.9 µg/mL) | 
CN(C)c1nc2c(Br)c(Br)c(Br)c(Br)c2n1CC(=O)O [Compound K66, reference compound] |  | > 10 µM |  | 
Brc1c(Br)c(Br)c2[nH]nnc2c1Br [TBB, reference compound] |  | > 10 µM |  | 
Brc1c(Br)c(Br)c2c(Br)n[nH]c2c1Br [Compound K64, reference compound] |  | > 10 µM |  | 
NCCCNc1nc2c(Br)c(Br)c(Br)c(Br)c2[nH]1 [Compound 11, N-(3-aminopropyl)-4,5,6,7-tetrabromo-1H-benzo[d]imidazol-2-amine] | 5.34 µM |  | 370 µM (≈ 187 µg/mL) | IC50 (CLK1): 177 nM
Brc1c(Br)c(Br)c2[nH]c(NCCN3CCCCC3)nc2c1Br [Compound 13, 4,5,6,7-tetrabromo-N-(2-(piperidin-1-yl)ethyl)-1H-benzo[d]imidazol-2-amine] |  |  |  | IC50 (CLK1): 594 nM
Brc1c(Br)c(Br)c2[nH]c(NCCN3CCCC3)nc2c1Br [Compound 14, 4,5,6,7-tetrabromo-N-(2-(pyrrolidin-1-yl)ethyl)-1H-benzo[d]imidazol-2-amine] |  |  | 31 µM (≈ 16.9 µg/mL) | 
Brc1c(Br)c(Br)c2[nH]cnc2c1Br [TBI, reference compound] |  | > 10 µM |  | 
